Here are results for one molecule from patent publication US20240226105A1 (priority 2021, published 2024).

“Also recorded” adds a separate entry of the source. Where two headings read alike, the source gives them in different places.

Usually pKa stands for the negative logarithm of the acid dissociation constant.

The format of data set [1] is physicochemical.
The format of data set [2] is physicochemical. To be noted: pH 4.
For data set [3] the following is noted: cited from earlier work.
Data set [4] is classed as physicochemical. This is another data set of the same source.
The format of data set [5] is physicochemical. The source holds these as a separate data set.
Data set [6] is classed as physicochemical. This is another data set of the same source.
The format of data set [7] is physicochemical. The source holds these as a separate data set.
Data set [8] is classed as physicochemical. The source holds these as a separate data set.

Take `N=C1NC(O)C2C3OC4(O)O[C@@H](C(O)C2(N1)[C@@H]4O)C3(O)CO` (stereo partly shown) [TTX, octahydro-12-(hydroxymethyl)-2-imino-5,9:7,10a-dimethano-10aH-(1,3)dioxocino(6,5-d)-pyrimidine-4,7,10,11,12-pentanol]: the “solubility of TTX in pure organic solvents” value in data set [1] was “below 30 μg/ml”. Moreover, the “concentration up to which TTX was sufficiently soluble” value in data set [2] was at least 300 µg/mL. Also, in data set [3], the pKa is 9.4. In data set [4], the “concentration up to which TTX was soluble” value is listed as “about 150 ug/mL”. Besides, the “concentration at which TTX was found to be solubilized” value in data set [5] and in data set [6] was 300 µg/mL each time. For the same molecule, in data set [7], the “solubility of TTX in a combination of organic solvents and acids” value is listed as “below 30 μg/ml”. For the same molecule, the “TTX Solubility” value in data set [7] (pH 3.7) and in data set [7] (pH 4.6) was “Not soluble” in each case. Besides, the “TTX solubility (observation)” value in data set [8] is given as “Deposits in the vial; also recorded: Partially solubilized; also recorded: Almost fully solubilized”.
